{"source": "patent US20080318255A1", "about": "“Fluorescent Labeled Sphingosines” (priority 2003, published 2008)", "key": {"human SPHK-1": {"molecular_target": "T1, human SPHK-1 (Homo sapiens, UniProt Q9NYA1)", "T1 construct": "expressed in transfected cells; host or cells: HEK-293 (cytoplasmic fraction)", "T1 sequence (Q9NYA1 whole entry)": "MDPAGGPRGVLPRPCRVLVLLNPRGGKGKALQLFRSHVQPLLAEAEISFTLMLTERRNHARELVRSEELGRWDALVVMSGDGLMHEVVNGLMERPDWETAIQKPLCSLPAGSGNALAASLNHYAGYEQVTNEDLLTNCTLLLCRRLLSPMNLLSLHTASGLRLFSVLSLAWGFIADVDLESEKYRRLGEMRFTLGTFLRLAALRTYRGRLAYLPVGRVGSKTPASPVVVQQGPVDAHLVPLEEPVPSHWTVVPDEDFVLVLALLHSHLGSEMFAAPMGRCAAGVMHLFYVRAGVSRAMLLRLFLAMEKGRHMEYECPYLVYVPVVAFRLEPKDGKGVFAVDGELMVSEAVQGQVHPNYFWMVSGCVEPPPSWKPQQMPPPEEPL", "assay": "Phosphorylation of fluorescent labeled sphingosines by SPHK-1 ([γ-32P]ATP, TLC)", "type": "biochemical", "conditions": "for rate of phosphorylation (phosphate conversion rate) relative to sphingosine (=1), SPHK-1: 20 μM substrate, cytoplasmic fraction of HEK-293 cells overexpressing human SPHK-1; for times (fold) less efficiently converted to the phosphate than SP, SPHK-1: compared to sphingosine (SP); for reduction of phosphorylation efficiency (factor), SPHK-1: compared to compound of example 4", "method": "(§1) The phosphorylation reactions are performed essentially as follows. The cytoplasmic fraction of recombinant HEK-293 cells overexpressing human SPHK-1 or -2 is incubated at 30° in total volumes of 100 μl with SP derivatives (20 μM; added from stock solutions in DMSO), 1 mM of ATP, and 2 μCi [γ-^32P]ATP in 50 mM Hepes buffer (pH 7.4) containing 15 mM MgCl2, 0.005% Triton X-100, 10 mM KCl , 10 mM NaF and 1.5 mM semicarbazide. Following incubations for different time points up to 2 hours, lipids are extracted and separated by TLC-plates (Merck). TLC is performed on silica plates, using either BuOH/acetic acid/H2O 3:1:1 or CHCl3/MeOH/H2O/NH4OH (28^w/w%) 200:150:29:1 as the mobile phase. In these systems sphingosine and the compound of Example 4 co-migrate. Identity of the metabolites with pyrene-labeled SPP and sphingomyelin (SM) is established by co-migration with commercially available tritium-labeled SPP and SM as standards.\n(§2) Radiolabeled SPP derivatives are visualized and quantified using a Molecular Dynamics Storm Phosphorlmager (Sunnyvale, Calif.). The rate of phosphorylation is calculated and is reported for the fluorescent labeled sphingosines as value relative to the rate for sphingosine (for which the rate is 41 and 25 nmol/min/mg with SPHK-1 and -2, respectively).\n(§3) The fluorescently labeled sphingosines of examples 1-7 are used as substrates for human recombinant SPHK-1 and SPHK-2 and all of them are converted to phosphorylated derivatives as visualized by the incorporation of radiolabeled phosphate upon incubation with [γ-32P]ATP and the kinases. The rates of phosphorylation (phosphate conversion rate) are determined and summarized in Table A relative to the natural substrate sphingosine (=SP), which has the assumed value of 1."}, "human SPHK-2": {"molecular_target": "T2, human SPHK-2 (Homo sapiens, UniProt Q9NRA0)", "T2 construct": "expressed in transfected cells; host or cells: HEK-293 (cytoplasmic fraction)", "T2 sequence (Q9NRA0 1-654)": "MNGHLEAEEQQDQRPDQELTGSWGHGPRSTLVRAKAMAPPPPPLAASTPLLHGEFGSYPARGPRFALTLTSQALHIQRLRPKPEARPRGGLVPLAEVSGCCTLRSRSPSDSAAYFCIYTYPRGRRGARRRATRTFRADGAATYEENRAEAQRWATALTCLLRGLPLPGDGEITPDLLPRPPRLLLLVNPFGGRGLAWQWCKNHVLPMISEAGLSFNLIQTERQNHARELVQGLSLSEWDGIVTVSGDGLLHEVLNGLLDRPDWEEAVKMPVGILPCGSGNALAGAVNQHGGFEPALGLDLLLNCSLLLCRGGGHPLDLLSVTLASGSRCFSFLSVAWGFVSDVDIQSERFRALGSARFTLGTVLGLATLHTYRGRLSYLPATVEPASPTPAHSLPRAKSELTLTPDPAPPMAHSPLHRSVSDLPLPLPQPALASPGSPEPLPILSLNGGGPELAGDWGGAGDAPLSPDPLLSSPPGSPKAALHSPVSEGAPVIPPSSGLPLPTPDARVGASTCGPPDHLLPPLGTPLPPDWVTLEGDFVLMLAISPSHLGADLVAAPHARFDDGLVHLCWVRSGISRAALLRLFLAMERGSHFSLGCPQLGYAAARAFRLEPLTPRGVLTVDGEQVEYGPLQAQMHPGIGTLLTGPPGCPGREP", "assay": "Phosphorylation of fluorescent labeled sphingosines by SPHK-2 ([γ-32P]ATP, TLC)", "type": "biochemical", "conditions": "for rate of phosphorylation (phosphate conversion rate) relative to sphingosine (=1), SPHK-2: 20 μM substrate, cytoplasmic fraction of HEK-293 cells overexpressing human SPHK-2", "method": "as §1, §2, §3"}, "[1]": {"tested_on": "human endothelial cells (HUVEC)", "assay": "Uptake, subcellular distribution and metabolism of fluorescent labeled sphingosines in human endothelial cells", "type": "cell-based", "excerpt": "To examine the uptake, subcellular distribution and metabolism (conversion to the phosphate) in human endothelial cells (HUVEC), the pyrene labeled sphingosine of example 4 is used. […] Furthermore, the compound is converted intracellularly into 4 products as shown by thin-layer chromatography."}, "sphingosine kinase": {"tested_on": "sphingosine kinase", "assay": "Fluorimetric assay of sphingosine kinase activity", "type": "biochemical", "excerpt": "We have determined that sphingosine kinase in the presence of ATP phosphorylates a compound COMPA (compound of Example 23), which is a fluorescent labeled sphingosine, to obtain a corresponding phosphorylated compound COMPA-P (compound of Example 24) according to the Reaction SCHEME 4 as set out below.\nwherein residues are as defined above and R3 is H. such as phosphorylation of a compound of Example […] by a sphingosine kinase to obtain a compound of Example […] in the presence of ATP. COMPA and COMPB are separated by liquid-liquid extraction. Fluorescence as a measure of enzyme activity of a compound of formula COMPA-P in the aqueous phase is quantified. In detail:\nSphingosine kinase is incubated in total volumes of 100 μl with a compound of formula COMPA (20 μM, added from stock solutions in DMSO) and ATP (1 mM) in 50 mM Hepes buffer, pH 7.4, containing 15 mM MgCl2, 0.005% Triton X-100, 10 mM KCl for 30 minutes at 30° and to the mixture obtained 100 μl 1 M potassium phosphate buffer, pH 8.5, followed by 250 μl CHCl3/MeOH 2:1 are added. […]\nFluorescence intensity is measured in a plate reader with excitation at 485 nm and emission at 538 nm. […] From the fluorescence intensity, concentrations of a compound of formula COMPA-P are calculated using appropriate calibration curves in the same solvent system. […]"}, "[2]": {"tested_on": "HUVEC overexpressing SPHK-1 or SPHK-2", "assay": "Sphingolipid turnover of labeled sphingosines in HUVEC transiently transfected with SPHK-1 and SPHK-2", "type": "cell-based, human", "conditions": "FIG. 3, transfected cells, TLC", "method": "HUVEC as described in Test Example 4 are seeded in 6-well plates at 50% confluency and grown overnight. Grown cells obtained are transfected using Lipofectamine Plus reagent with an empty vector (GFP-vector from Clontech) alone and GFP-tagged expression constructs coding for SPHK-1 and SPHK-2. Transfection is carried out for 20 hours. To the transfected cells obtained a labeled compound of formula I wherein X is (HO)2PO is added at 2 μM and incubated for 0.5 hours, 1 hour and 3 hours, respectively. Lipids are extracted and the extraction residue obtained is subjected to TLC using BuOH/AcOH/H2O 3:1:1 as a solvent system. TLC plates obtained are scanned using CCD camera and density of the lipid products obtained is measured using AlphaImage 2200 (see FIG. 3)."}}}
{"smiles": "N[C@@H](CO)[C@H](O)/C=C/CCCOC(=O)CCCCCCCCCc1cc2ccc3cccc4ccc(c1)c2c34", "note": "[Example 3]", "values": [{"measurement": "rate of phosphorylation (phosphate conversion rate) relative to sphingosine (=1), SPHK-1", "setting": "human SPHK-1; 1 mM ATP, 30°", "result": 0.024}, {"measurement": "times (fold) less efficiently converted to the phosphate than SP, SPHK-1", "setting": "human SPHK-1", "result": "about 40"}, {"measurement": "rate of phosphorylation (phosphate conversion rate) relative to sphingosine (=1), SPHK-2", "setting": "human SPHK-2; 1 mM ATP, 30°", "result": 0.065}]}
{"smiles": "N[C@@H](CO)[C@H](O)/C=C/CCCCCCCCCCOC(=O)c1cc2ccc3cccc4ccc(c1)c2c34", "note": "[Example 4]", "values": [{"measurement": "phosphorylation by SPHK-1 (in words)", "setting": "human SPHK-1", "result": "almost equal phosphorylation by SPHK-1 relative to natural SP"}, {"measurement": "rate of phosphorylation (phosphate conversion rate) relative to sphingosine (=1), SPHK-1", "setting": "human SPHK-1; 1 mM ATP, 30°", "result": 0.83}, {"measurement": "degradation of the ester functionality", "setting": "human SPHK-1; short term in vitro phosphorylation experiments", "result": "no degradation is observed"}, {"measurement": "time to incorporation into the cells after addition", "setting": "[1]", "result": "≤ 5", "unit": "min"}, {"measurement": "subcellular distribution", "setting": "[1]; after 15-30 minutes of incubation", "result": "predominantly distribution to the endoplasmic reticulum and to the Golgi apparatus"}, {"measurement": "major metabolite", "setting": "[1]; thin-layer chromatography", "result": "co-migrates with sphingosine-1-phosphate (SPP)"}, {"measurement": "number of products formed intracellularly", "setting": "[1]; thin-layer chromatography", "result": 4}, {"measurement": "rate of phosphorylation (phosphate conversion rate) relative to sphingosine (=1), SPHK-2", "setting": "human SPHK-2; 1 mM ATP, 30°", "result": 1.25}]}
{"smiles": "CN(C)c1cccc2c(S(=O)(=O)NCCCCCCCCCC/C=C/[C@@H](O)[C@@H](N)CO)cccc12", "note": "[Example 7]", "values": [{"measurement": "rate of phosphorylation (phosphate conversion rate) relative to sphingosine (=1), SPHK-1", "setting": "human SPHK-1; 1 mM ATP, 30°", "result": 0.063}, {"measurement": "rate of phosphorylation (phosphate conversion rate) relative to sphingosine (=1), SPHK-2", "setting": "human SPHK-2; 1 mM ATP, 30°", "result": 0.026}]}
{"smiles": "N[C@@H](CO)[C@H](O)/C=C/CCCOC(=O)CCCc1cc2ccc3cccc4ccc(c1)c2c34", "note": "[Example 1]", "values": [{"measurement": "rate of phosphorylation (phosphate conversion rate) relative to sphingosine (=1), SPHK-1", "setting": "human SPHK-1; 1 mM ATP, 30°", "result": 0.048}, {"measurement": "times (fold) less efficiently converted to the phosphate than SP, SPHK-1", "setting": "human SPHK-1", "result": "about 20"}, {"measurement": "rate of phosphorylation (phosphate conversion rate) relative to sphingosine (=1), SPHK-2", "setting": "human SPHK-2; 1 mM ATP, 30°", "result": 0.14}]}
{"smiles": "N[C@H](COCCCCCCCCCCCNc1ccc([N+](=O)[O-])c2nonc12)COP(=O)(O)O", "note": "[Example 23, Phosphoric acid mono-{(R)-2-amino-3-[11-(7-nitro-benzo[1,2,5]oxadiazol-4-ylamino)-undecyloxy]-propyl}ester]", "values": [{"measurement": "phosphorylation by sphingosine kinase in the presence of ATP", "setting": "sphingosine kinase", "result": "phosphorylates"}]}
{"smiles": "N[C@@H](CO)[C@H](O)/C=C/CCCCCCCCCCNS(=O)(=O)c1cc2ccc3cccc4ccc(c1)c2c34", "note": "[Example 6]", "values": [{"measurement": "rate of phosphorylation (phosphate conversion rate) relative to sphingosine (=1), SPHK-1", "setting": "human SPHK-1; 1 mM ATP, 30°", "result": 0.051}, {"measurement": "reduction of phosphorylation efficiency (factor), SPHK-1", "setting": "human SPHK-1", "result": "about 20"}, {"measurement": "phosphorylation by SPHK-2 (in words)", "setting": "human SPHK-2", "result": "almost as efficiently as SP"}, {"measurement": "rate of phosphorylation (phosphate conversion rate) relative to sphingosine (=1), SPHK-2", "setting": "human SPHK-2; 1 mM ATP, 30°", "result": 0.83}]}
{"smiles": "N[C@@H](CO)[C@H](O)/C=C/CCCCCCCCCCNC(=O)c1cc2ccc3cccc4ccc(c1)c2c34", "note": "[Example 5]", "values": [{"measurement": "rate of phosphorylation (phosphate conversion rate) relative to sphingosine (=1), SPHK-1", "setting": "human SPHK-1; 1 mM ATP, 30°", "result": 0.28}, {"measurement": "reduction of phosphorylation efficiency (factor), SPHK-1", "setting": "human SPHK-1", "result": 2}, {"measurement": "rate of phosphorylation (phosphate conversion rate) relative to sphingosine (=1), SPHK-2", "setting": "human SPHK-2; 1 mM ATP, 30°", "result": 0.59}, {"measurement": "reduction of phosphorylation efficiency (factor), SPHK-2", "setting": "human SPHK-2; compared to compound of example 4", "result": 3}]}
{"smiles": "N[C@@H](CO)[C@H](O)/C=C/CCCCCCCCCCNc1ccc([N+](=O)[O-])c2nonc12", "note": "[Example 24]", "values": [{"measurement": "phosphorylation in cells overexpressing SPHK-1 versus SPHK-2", "setting": "[2]", "result": "phosphorylated more efficient by SPHK-2 than by SPHK-1"}]}
{"smiles": "CCCCCCCCCCCCC/C=C/[C@@H](O)[C@@H](N)CO", "note": "[sphingosine]", "values": [{"measurement": "rate of phosphorylation with SPHK-1", "setting": "human SPHK-1; 20 μM, 1 mM ATP, 30°", "result": 41, "unit": "nmol/min/mg"}, {"measurement": "rate of phosphorylation with SPHK-2", "setting": "human SPHK-2; 20 μM, 1 mM ATP, 30°", "result": 25, "unit": "nmol/min/mg"}]}
{"smiles": "N[C@@H](CO)[C@H](O)/C=C/CCCOC(=O)CCCCCc1cc2ccc3cccc4ccc(c1)c2c34", "note": "[Example 2]", "values": [{"measurement": "rate of phosphorylation (phosphate conversion rate) relative to sphingosine (=1), SPHK-1", "setting": "human SPHK-1; 1 mM ATP, 30°", "result": 0.078}, {"measurement": "improvement of phosphorylation rate by a factor, SPHK-1", "setting": "human SPHK-1; compared to example 1", "result": 2}, {"measurement": "rate of phosphorylation (phosphate conversion rate) relative to sphingosine (=1), SPHK-2", "setting": "human SPHK-2; 1 mM ATP, 30°", "result": 0.83}]}
